What was measured:
[1] = background statement with literature references; cited from earlier work

| SMILES | melting point | insulinotropic activity [1] |
| --- | --- | --- |
| C[C@@H]([C@H](C)O)[C@@H](NCc1ccccc1)C(=O)O [(2R)-N-Bn-1, (2R,3R,4S)-N-benzyl-4-hydroxyisoleucine] | 193 to 194 °C (dec.) |  |
| C[C@@H]([C@H](C)O)[C@H](N)C(=O)O [compound 1, (2S,3R,4S)-4-hydroxyisoleucine] |  | possesses an insulinotropic activity |
